Reference: patent US10392422B2, “Macrocyclic broad spectrum antibiotics” (priority 2014, dated 2019)
Values after ≈ are worked out from the molar mass of the structure shown. Like-named read-outs stand apart in the source and are kept apart here.

What was measured:
Test in all cases: MIC, broth micro-dilution technique (CLSI)
[1] = test system: Escherichia coli MC4100 harboring the IMP4213; format: cell-based; details: Escherichia coli, 22 h, read-out: MIC (μg/mL) E. coli, Table 1 protocol: serial 2-fold dilutions starting from 64 μg/ml; 35° C., 22 hours
Method in brief: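 Susceptibility is tested by broth micro-dilution per CLSI, using ten serial 2-fold dilutions beginning at 64 μg/ml or, in a modified version, 4 μg/mL. The E. coli MC4100 strain carries an imp allele raising outer-membrane permeability.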

[2] = test system: Methicillin Resistant Staphylococcus aureus strain USA 300 (NRS384); format: cell-based; details: Staphylococcus aureus, 22 h, read-out: MIC (μg/mL) S. aureus
Method in brief: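 Cation-adjusted MHB + 0.002% Tween-80; 10-point 2-fold series starting 64 μg/ml (modified protocol: 4 μg/mL). Final inoculum OD600 0.0005; 35° C, 22 h. MIC per CLSI M07-A8 broth microdilution.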

[3] = test system: MRSA COL (NRS100); format: cell-based, Staphylococcus aureus; details: Staphylococcus aureus, 22 h, read-out: MIC (μg/mL) (COL)
Protocol: In vitro antimicrobial activity of each compound was determined by measuring minimal inhibitor concentrations (MICs) using the broth micro-dilution technique as approved by the Clinical and Laboratory Standards Institute (CLSI) (Methods for Dilution Antimicrobial Susceptibility Tests for Bacteria that Grow Aerobically; Approved Standard—Eighth Edition. CLSI document M07-A8. Wayne, Pa.: Clinical and Laboratory Standards; 2009). Antibacterial activity was measured against three strains of bacteria: a Methicillin Resistant Staphylococcus aureus strain USA 300 (NRS384); a MRSA COL (NRS100), another Methicillin Resistant Staphylococcus aureus strain; and a strain of Escherichia coli MC4100 harboring the IMP4213, which results in increased outer-membrane permeability (B Martin and Silhavy T. Imp/OstA is required for cell envelope biogenesis in Escherichia coli. (2002) Molecular Microbiology, 45(5), 1289-1302). Cells were inoculated onto plates of Trypyticase Soy Agar or Luria Agar respectively and grown at 35° C. for 20 hours. Inocula suspensions were prepared by scraping cells into 1 ml of testing media (cation adjusted Mueller Hinton Broth supplemented with 0.002% v/v Tween-80) and diluting to a final OD600 nm of 0.01.
Test compounds were prepared in DMSO at a concentration of 10 mg/ml. These compound stocks were diluted into testing media at a concentration of 64 μg/ml and serial 2-fold dilutions were made in the same media, in 96-well U bottom microtiter dishes, for a total of 10 compound concentrations (Table 1). In modified protocols (Table 2), compound stocks were diluted into testing media at a concentration of 4 μg/mL and serial 2-fold dilutions were made in the same media, in 96-well U bottom microtiter dishes, for a total of 10 compound concentrations. Inocula suspensions were added to the 2-fold serial dilutions of test compounds to a final density of OD OD600 nm of 0.0005 and incubated at 35° C. for 22 hours. […] The results from the protocol starting from a concentration of 64 µg/mL are listed in Table 1 and the results from the modified protocol are shown in Table 2.

[4] = Table 1 protocol: serial 2-fold dilutions starting from 64 μg/ml, 35° C., 22 hours

Row | Compound | MIC [1] | MIC [2, 4] | MIC [3, 4] | MIC [2] | MIC [3]
1 | C[C@@H]1NC(=O)[C@@H](N(C)C(=O)[C@H](CCCCN)NC(=O)c2ccc(-c3ccc(Cl)cc3)cc2)c2ccc(O)c(c2)-c2cc(ccc2O)C[C@@H](C(=O)N[C@@H](C)C(=O)N2CSC[C@@H]2C(N)=O)NC1=O [Compound 175] | 32 µg/mL (≈ 34 µM) | > 64 µg/mL | 32 µg/mL (≈ 34 µM) |  | 
2 | C[C@@H]1NC(=O)[C@@H](N(C)C(=O)[C@H](CCCCN)NC(=O)c2ccc(-c3ccc(Cl)cc3)cc2)c2ccc(O)c(c2)-c2cc(ccc2O)C[C@@H](C(=O)N[C@@H](C)C(=O)N2C[C@@H](O)C[C@H]2C(N)=O)NC1=O [Compound 177] | 64 µg/mL (≈ 68.1 µM) | 16 µg/mL (≈ 17 µM) | 4 µg/mL (≈ 4.26 µM) |  | 
3 | C[C@H](NC(=O)[C@@H]1CCCN1C(=O)[C@H](C)NC(=O)[C@@H]1Cc2ccc(O)c(c2)-c2cc(ccc2O)[C@H](N(C)C(=O)[C@H](CCCCN)NC(=O)c2ccc(-c3ccc(Cl)cc3)cc2)C(=O)N[C@@H](C)C(=O)N1)C(N)=O [Compound 179] | 64 µg/mL (≈ 64.4 µM) |  |  | 32 µg/mL (≈ 32.2 µM) | 16 µg/mL (≈ 16.1 µM)
4 | C[C@@H]1NC(=O)[C@@H](N(C)C(=O)[C@H](CCCCN)NC(=O)c2ccc(-c3ccc(Cl)cc3)cc2)c2ccc(O)c(c2)-c2cc(ccc2O)C[C@@H](C(=O)N[C@@H](C)C(=O)N(C)CC(N)=O)NC1=O [Compound 182] | 64 µg/mL (≈ 71.3 µM) | 10 µg/mL (≈ 11.1 µM) | 2 µg/mL (≈ 2.23 µM) |  | 
5 | C[C@@H]1NC(=O)[C@@H](N(C)C(=O)[C@H](CCCCN)NC(=O)c2ccc(-c3ccc(Cl)cc3)cc2)c2ccc(O)c(c2)-c2cc(ccc2O)C[C@@H](C(=O)N[C@@H](C)C(=O)N(C)[C@@H](C)C(N)=O)NC1=O [Compound 183] | 32 µg/mL (≈ 35.1 µM) | 8 µg/mL (≈ 8.78 µM) | 2.4 µg/mL (≈ 2.63 µM) |  | 
6 | C[C@@H]1NC(=O)[C@@H](N(C)C(=O)[C@H](CCCCN)NC(=O)c2ccc(-c3ccc(Cl)cc3)cc2)c2ccc(O)c(c2)-c2cc(ccc2O)C[C@@H](C(=O)N[C@@H](C)C(=O)N2CCC[C@H]2C(=O)NN)NC1=O [Compound 186] | > 64 µg/mL | 45 µg/mL (≈ 47.9 µM) | 12 µg/mL (≈ 12.8 µM) |  | 
7 | CCCCCCCCCCNCCC(=O)N[C@@H](CCCCN)C(=O)N(C)[C@@H]1C(=O)N[C@@H](C)C(=O)N[C@H](C(=O)N[C@@H](C)C(=O)N(C)[C@H]2CCNC2=O)Cc2ccc(O)c(c2)-c2cc1ccc2OCCN [Compound 187] | 23 µg/mL (≈ 23.9 µM) | 3.7 µg/mL (≈ 3.84 µM) | 0.5 µg/mL (≈ 0.519 µM) |  | 
8 | CC(NC(=O)[C@@H]1Cc2ccc(O)c(c2)-c2cc(ccc2O)[C@H](N(C)C(=O)[C@H](CCCCN)NC(=O)c2ccc(-c3ccc(Cl)cc3)cc2)C(=O)N[C@@H](C)C(=O)N1)C(=O)c1ncco1 (stereo partly drawn) [Compound 188] | 11 µg/mL (≈ 12.5 µM) | 16 µg/mL (≈ 18.2 µM) | 4 µg/mL (≈ 4.55 µM) |  | 
9 | C[C@H](NC(=O)[C@@H]1Cc2ccc(O)c(c2)-c2cc(ccc2O)[C@H](N(C)C(=O)[C@H](CCCCN)NC(=O)c2ccc(-c3ccc(Cl)cc3)cc2)C(=O)N[C@@H](C)C(=O)N1)C(=O)CC(N)=O [Compound 189] | 32 µg/mL (≈ 36.8 µM) | 5.7 µg/mL (≈ 6.56 µM) | 2 µg/mL (≈ 2.3 µM) |  | 
10 | CCCCCCCCCCNCCC(=O)N[C@@H](CCCCN)C(=O)N(C)[C@@H]1C(=O)N[C@@H](C)C(=O)N[C@H](C(=O)N[C@@H](C)C(=O)N2CCC[C@H]2C(N)=O)Cc2ccc(O)c(c2)-c2cc1ccc2OCCN [Compound 190] | 32 µg/mL (≈ 33.2 µM) | 1.7 µg/mL (≈ 1.76 µM) | 0.25 µg/mL (≈ 0.26 µM) |  | 
11 | COC(=O)CC(=O)[C@H](C)NC(=O)[C@@H]1Cc2ccc(O)c(c2)-c2cc(ccc2O)[C@H](N(C)C(=O)[C@H](CCCCN)NC(=O)c2ccc(-c3ccc(Cl)cc3)cc2)C(=O)N[C@@H](C)C(=O)N1 [Compound 191] | > 64 µg/mL | 32 µg/mL (≈ 36.2 µM) | 8 µg/mL (≈ 9.06 µM) |  | 
12 | C[C@H](NC(=O)[C@@H]1Cc2ccc(O)c(c2)-c2cc(ccc2O)[C@H](N(C)C(=O)[C@H](CCCCN)NC(=O)c2ccc(-c3ccc(Cl)cc3)cc2)C(=O)N[C@@H](C)C(=O)N1)C(=O)Cc1c[nH]nn1 [Compound 192] | 64 µg/mL (≈ 71.7 µM) | 11 µg/mL (≈ 12.3 µM) | 2 µg/mL (≈ 2.24 µM) |  | 
13 | CCCCCCCCCCNCCC(=O)N[C@@H](CCCCN)C(=O)N(C)[C@@H]1C(=O)N[C@@H](C)C(=O)N[C@H](C(=O)N[C@@H](C)C(=O)c2nnn[nH]2)Cc2ccc(O)c(c2)-c2cc1ccc2OCCN [Compound 193] | 8 µg/mL (≈ 8.7 µM) | 0.5 µg/mL (≈ 0.544 µM) | 0.13 µg/mL (≈ 0.141 µM) |  | 
14 | CC(NC(=O)[C@@H]1Cc2ccc(O)c(c2)-c2cc(ccc2O)[C@H](N(C)C(=O)[C@H](CCCCN)NC(=O)c2ccc(-c3ccc(Cl)cc3)cc2)C(=O)N[C@@H](C)C(=O)N1)C(=O)c1ncccn1 (stereo partly drawn) [Compound 194] | 8 µg/mL (≈ 8.99 µM) | 8 µg/mL (≈ 8.99 µM) | 4 µg/mL (≈ 4.5 µM) |  | 
15 | COCC(=O)[C@H](C)NC(=O)[C@@H]1Cc2ccc(O)c(c2)-c2cc(ccc2OCCN)[C@H](N(C)C(=O)[C@H](CCCCN)NC(=O)c2ccc(-c3ccc(Cl)cc3)cc2)C(=O)N[C@@H](C)C(=O)N1 [Compound 195] | 2 µg/mL (≈ 2.23 µM) | 2.8 µg/mL (≈ 3.12 µM) | 0.38 µg/mL (≈ 0.423 µM) |  | 
16 | CCCCCCCCCCNCCC(=O)N(C)[C@@H]1C(=O)N[C@@H](C)C(=O)N[C@H](C(=O)N[C@@H](C)C(C)=O)Cc2ccc(O)c(c2)-c2cc1ccc2O [Compound 196] | > 64 µg/mL |  |  | 4 µg/mL (≈ 5.76 µM) | 1 µg/mL (≈ 1.44 µM)
17 | C[C@@H]1NC(=O)[C@@H](N(C)C(=O)[C@H](CCCCN)NC(=O)c2ccc(-c3ccc(Cl)cc3)cc2)c2ccc(O)c(c2)-c2cc(ccc2O)C[C@@H](C(=O)N[C@@H](C)C(=O)N(C)[C@H](C)C(N)=O)NC1=O [Compound 197] | 32 µg/mL (≈ 35.1 µM) | 20 µg/mL (≈ 21.9 µM) | 3.9 µg/mL (≈ 4.28 µM) |  | 
18 | C[C@@H]1NC(=O)[C@@H](N(C)C(=O)[C@H](CCCCN)NC(=O)c2ccc(-c3ccc(Cl)cc3)cc2)c2ccc(O)c(c2)-c2cc(ccc2O)C[C@@H](C(=O)N[C@@H](C)C(=O)N(C)[C@@H](CO)C(N)=O)NC1=O [Compound 198] | 16 µg/mL (≈ 17.3 µM) | 13 µg/mL (≈ 14 µM) | 2 µg/mL (≈ 2.16 µM) |  | 
19 | C[C@@H]1NC(=O)[C@@H](N(C)C(=O)[C@H](CCCCN)NC(=O)c2ccc(-c3ccc(Cl)cc3)cc2)c2ccc(O)c(c2)-c2cc(ccc2O)C[C@@H](C(=O)N[C@@H](CO)C(=O)N(C)[C@@H](C)C(N)=O)NC1=O [Compound 199] | 64 µg/mL (≈ 69 µM) | 10 µg/mL (≈ 10.8 µM) | 2 µg/mL (≈ 2.16 µM) |  | 
20 | CCCCCCCCCCNCCC(=O)N[C@@H](CCCCN)C(=O)N(C)[C@@H]1C(=O)N[C@@H](C)C(=O)N[C@H](C(=O)N[C@@H](C)C(=O)COC(C)=O)Cc2ccc(O)c(c2)-c2cc1ccc2O [Compound 200] | 64 µg/mL (≈ 72.7 µM) | 2 µg/mL (≈ 2.27 µM) | 0.5 µg/mL (≈ 0.568 µM) |  | 
21 | CCCCCCCCCCNCCC(=O)N[C@@H](CCCCN)C(=O)N(C)[C@@H]1C(=O)N[C@@H](C)C(=O)N[C@H](C(=O)N[C@@H](C)C(=O)CO)Cc2ccc(O)c(c2)-c2cc1ccc2OCCN [Compound 201] | 8 µg/mL (≈ 9.08 µM) | 0.35 µg/mL (≈ 0.397 µM) | 0.063 µg/mL (≈ 0.0715 µM) |  | 
22 | CC(=O)[C@H](C)NC(=O)[C@@H]1Cc2ccc(O)c(c2)-c2cc(ccc2OCCCN)[C@H](N(C)C(=O)[C@H](CCCCN)NC(=O)c2ccc(-c3ccc(Cl)cc3)cc2)C(=O)N[C@@H](C)C(=O)N1 [Compound 202] | 8 µg/mL (≈ 9.07 µM) | 2.8 µg/mL (≈ 3.17 µM) | 0.5 µg/mL (≈ 0.567 µM) |  | 
23 | CNCCNCCOc1ccc2cc1-c1cc(ccc1O)C[C@@H](C(=O)N[C@@H](C)C(C)=O)NC(=O)[C@H](C)NC(=O)[C@H]2N(C)C(=O)[C@H](CCCCN)NC(=O)c1ccc(-c2ccc(Cl)cc2)cc1 [Compound 204] | 8 µg/mL (≈ 8.64 µM) | 11 µg/mL (≈ 11.9 µM) | 1 µg/mL (≈ 1.08 µM) |  | 
24 | CC(=O)[C@H](C)NC(=O)[C@@H]1Cc2ccc(O)c(c2)-c2cc(ccc2OCCNCC(=O)O)[C@H](N(C)C(=O)[C@H](CCCCN)NC(=O)c2ccc(-c3ccc(Cl)cc3)cc2)C(=O)N[C@@H](C)C(=O)N1 [Compound 205] | 32 µg/mL (≈ 34.5 µM) | 32 µg/mL (≈ 34.5 µM) | 6 µg/mL (≈ 6.48 µM) |  | 
25 | CNCCCNCCOc1ccc2cc1-c1cc(ccc1O)C[C@@H](C(=O)N[C@@H](C)C(C)=O)NC(=O)[C@H](C)NC(=O)[C@H]2N(C)C(=O)[C@H](CCCCN)NC(=O)c1ccc(-c2ccc(Cl)cc2)cc1 [Compound 206] | 4 µg/mL (≈ 4.26 µM) | 4 µg/mL (≈ 4.26 µM) | 0.19 µg/mL (≈ 0.202 µM) |  | 
